Literature values as cited in patent US6620446B2, “Antibacterial composition for control of gram positive bacteria in food applications” (Rhodia, Inc., priority 2000, dated 2003).

System: L. monocytogenes
Conditions: reported by M. Doyle, Food Technology 1988

Question: Which “initial inhibition of the organism's growth, duration” value does the source give for nisin here?
Answer: The value was “about 12 hours”.
